Data as given in patent publication US8865623B2, “Herbicidally active cyclic diones and derivatives thereof, processes for their preparation, compositions, and method of controlling weeds” (Syngenta Limited, priority 2009, dated 2014).

Tests used:
Assay type in all cases: in vivo
[1] = tested on: Alopecurus myosuroides (ALOMY); test: Pre-emergence herbicidal activity, glasshouse pot test; details: evaluated after 13 days; for pest or weed control at 250 g/ha: Alopecurus myosuroides, 312 h, Rate 250 g/ha, pre-emergence spray, read-out: Pre-emergence activity ALOMY (100=total damage to plant; 0=no damage to plant); for ALOMY damage to plant (100=total damage to plant; 0=no damage to plant): pre-emergence, rate 250 g/ha
Summary of the method: (§1)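 Sow seeds in standard soil in pots; grow 1 day (pre-emergence) or 8 days (post-emergence) at 24/16° C, 14 h light, 65% humidity. Spray aqueous solution from acetone/water 50:50 + 0.5% Tween 20 formulation. Grow on, watering twice daily; score damage 0–100 after 13 days.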

Avena fatua (AVEFA) [2] = test: as above; details: evaluated after 13 days; for pest or weed control at 250 g/ha: Avena fatua, 312 h, Rate 250 g/ha, pre-emergence spray, read-out: Pre-emergence activity AVEFA (100=total damage to plant; 0=no damage to plant); for AVEFA damage to plant (100=total damage to plant; 0=no damage to plant): pre-emergence, rate 250 g/ha
Summary of the method: as §1

[3] = tested on: Echinochloa crus-galli (ECHCG); test: as above; details: evaluated after 13 days; for pest or weed control at 250 g/ha: Echinochloa crus-galli, 312 h, Rate 250 g/ha, pre-emergence spray, read-out: Pre-emergence activity ECHCG (100=total damage to plant; 0=no damage to plant); for ECHCG damage to plant (100=total damage to plant; 0=no damage to plant): pre-emergence, rate 250 g/ha
Summary of the method: as §1

Lolium perenne (LOLPE) [4] = test: as above; details: evaluated after 13 days; for pest or weed control at 250 g/ha: Lolium perenne, 312 h, Rate 250 g/ha, pre-emergence spray, read-out: Pre-emergence activity LOLPE (100=total damage to plant; 0=no damage to plant); for LOLPE damage to plant (100=total damage to plant; 0=no damage to plant): pre-emergence, rate 250 g/ha
Summary of the method: as §1

[5] = tested on: Alopecurus myosuroides (ALOMY); test: Post-emergence herbicidal activity, glasshouse pot test; details: rate 250 g/ha, evaluated after 13 days; for pest or weed control at 250 g/ha: Alopecurus myosuroides, 312 h, glasshouse, read-out: Post-emergence activity ALOMY (100=total damage to plant; 0=no damage to plant)
Summary of the method: as §1

Avena fatua (AVEFA) [6] = test: as above; details: rate 250 g/ha, evaluated after 13 days; for pest or weed control at 250 g/ha: Avena fatua, 312 h, glasshouse, read-out: Post-emergence activity AVEFA (100=total damage to plant; 0=no damage to plant)
Summary of the method: as §1

[7] = tested on: Echinochloa crus-galli (ECHCG); test: as above; details: rate 250 g/ha, evaluated after 13 days; for pest or weed control at 250 g/ha: Echinochloa crus-galli, 312 h, glasshouse, read-out: Post-emergence activity ECHCG (100=total damage to plant; 0=no damage to plant)
Summary of the method: as §1

Lolium perenne (LOLPE) [8] = test: as above; details: rate 250 g/ha, evaluated after 13 days; for pest or weed control at 250 g/ha: Lolium perenne, 312 h, glasshouse, read-out: Post-emergence activity LOLPE (100=total damage to plant; 0=no damage to plant)
Summary of the method: as §1

SMILES | pest or weed control at 250 g/ha [1] | pest or weed control at 250 g/ha (Avena fatua (AVEFA) [2]) | pest or weed control at 250 g/ha [3] | pest or weed control at 250 g/ha (Lolium perenne (LOLPE) [4]) | pest or weed control at 250 g/ha [5] | pest or weed control at 250 g/ha (Avena fatua (AVEFA) [6]) | pest or weed control at 250 g/ha [7] | pest or weed control at 250 g/ha (Lolium perenne (LOLPE) [8]) | ALOMY damage to plant (100=total damage to plant; 0=no damage to plant) [1] | AVEFA damage to plant (100=total damage to plant; 0=no damage to plant) (Avena fatua (AVEFA) [2]) | ECHCG damage to plant (100=total damage to plant; 0=no damage to plant) [3] | LOLPE damage to plant (100=total damage to plant; 0=no damage to plant) (Lolium perenne (LOLPE) [4]) | ALOMY damage to plant (100=total damage to plant; 0=no damage to plant) [5] | AVEFA damage to plant (100=total damage to plant; 0=no damage to plant) (Avena fatua (AVEFA) [6]) | ECHCG damage to plant (100=total damage to plant; 0=no damage to plant) [7] | LOLPE damage to plant (100=total damage to plant; 0=no damage to plant) (Lolium perenne (LOLPE) [8])
CCc1ccc(Oc2nc3ccc(Cl)cc3s2)cc1C1=C(O)[C@H]2CC[C@H](C2)C1=O [Example A-338] | 90% | 80% | 100% | 100% | 100% | 100% | 100% | 100% |  |  |  |  |  |  |  | 
CCc1ccc(Oc2cnc3cc(F)ccc3n2)cc1C1=C(O)C(C)(C)OC(C)(C)C1=O [Example A-172] | 90% | 60% | 100% | 100% | 100% | 100% | 100% | 100% |  |  |  |  |  |  |  | 
CCc1ccc(Oc2nc3ccc(Cl)cc3o2)cc1C1=C(O)C(C)(C)OC(C)(C)C1=O [Example A-188] | 90% | 90% | 90% | 100% | 100% | 100% | 100% | 100% |  |  |  |  |  |  |  | 
CCc1ccc(Oc2cncc(Cl)n2)cc1C1=C(O)C(C)(C)OC(C)(C)C1=O [Example A-102] | 0% | 0% | 10% | 20% | 10% | 0% | 40% | 20% |  |  |  |  |  |  |  | 
CCc1ccc(Oc2ccc3cc(Cl)ccc3n2)cc1C1=C(O)[C@H]2CC[C@H](C2)C1=O [Example A-260] | 80% | 0% | 90% | 90% | 90% | 100% | 90% | 80% |  |  |  |  |  |  |  | 
CCc1ccc(Oc2ccc([N+](=O)[O-])c(C)c2)cc1C1=C(O)C(C)(C)OC(C)(C)C1=O [Example A-200] | 20% | 0% | 50% | 60% | 70% | 10% | 90% | 70% |  |  |  |  |  |  |  | 
CC1(C)OC(C)(C)C(O)=C(c2cc(Oc3ccc4cc(Cl)ccc4n3)ccc2C2CC2)C1=O [Example A-312] | 70% | 70% | 100% | 100% | 100% | 100% | 100% | 100% |  |  |  |  |  |  |  | 
CCc1ccc(Oc2nnc3cc(Cl)ccc3n2)cc1C1=C(O)C(C)(C)OC(C)(C)C1=O [Example A-237] | 10% | 10% | 40% | 20% | 10% | 10% | 70% | 10% |  |  |  |  |  |  |  | 
CCc1ccc(Oc2ccc(OC)nn2)cc1C1=C(O)C(C)(C)OC(C)(C)C1=O [Example A-124] | 0% | 0% | 10% | 0% | 10% | 0% | 40% | 10% |  |  |  |  |  |  |  | 
CCCOC(=O)OC1=C(c2cc(Oc3ccc(C#N)cc3F)ccc2CC)C(=O)C(C)(C)OC1(C)C [Example P-6] |  |  |  |  |  |  |  |  | 80 | 20 | 100 | 90 | 90 | 50 | 90 | 70
CCc1ccc(Oc2ccc(C#N)c(Cl)c2)cc1C1=C(O)C(C)(C)OC(C)(C)C1=O [Example A-75] | 100% | 80% | 100% | 100% | 100% | 90% | 100% | 100% |  |  |  |  |  |  |  | 
CCc1ccc(Oc2ccc(Br)cc2Cl)cc1C1=C(O)[C@@H]2CC[C@](C)(C1=O)C2(C)C [Example A-240] | 30% | 0% | 70% | 70% | 30% | 40% | 70% | 60% |  |  |  |  |  |  |  | 
CCc1ccc(Oc2ccc(C(F)(F)F)cc2Br)cc1C1=C(O)CC(C)(C)CC1=O [Example A-282] | 10% | 10% | 100% | 60% | 70% | 60% | 100% | 40% |  |  |  |  |  |  |  | 
CCc1ccc(Oc2ccc(Cl)cc2F)cc1C1=C(O)[C@@H]2CC[C@](C)(C1=O)C2(C)C (single isomer, unassigned) [Example A-95] | 70% | 80% | 90% | 90% | 60% | 80% | 80% | 50% |  |  |  |  |  |  |  | 
CCc1ccc(Oc2ccc(Br)cc2Cl)cc1C1=C(O)[C@H]2CC[C@H](C2)C1=O [Example A-244] | 20% | 0% | 90% | 70% | 60% | 70% | 90% | 80% |  |  |  |  |  |  |  | 
CCc1ccc(Oc2cc(F)ccc2C#N)cc1C1=C(O)C(C)(C)OC(C)(C)C1=O [Example A-117] | 0% | 0% | 20% | 20% | 80% | 30% | 100% | 40% |  |  |  |  |  |  |  | 
CCc1ccc(Oc2ncc(Cl)cc2F)cc1C1=C(O)CC2(CCOCC2)CC1=O [Example A-274] | 100% | 100% | 100% | 100% | 100% | 100% | 100% | 100% |  |  |  |  |  |  |  | 
CCc1ccc(Oc2ccc(Br)cc2F)cc1C1=C(O)[C@H]2CC[C@H](C2)C1=O [Example A-250] | 80% | 50% | 90% | 80% | 90% | 80% | 100% | 80% |  |  |  |  |  |  |  | 
CCC(=O)OC1=C(c2cc(Oc3ccc(C#N)cc3F)ccc2CC)C(=O)C(C)(C)OC1(C)C [Example P-2] |  |  |  |  |  |  |  |  | 80 | 70 | 100 | 100 | 90 | 70 | 100 | 90
CCc1ccc(Oc2nc3cc(Cl)ccc3s2)cc1C1=C(O)CC(C)(C)CC1=O [Example A-293] | 80% | 30% | 100% | 100% | 100% | 100% | 100% | 100% |  |  |  |  |  |  |  | 
